# Experimental data: paper PMC6672008, “Small molecule degraders of the hepatitis C virus protease reduce susceptibility to resistance mutations” (Nature Communications, 2019)
# “And” between values parts separate entries of the source, which are not always exact repeats. Identical values can stand only once. Like-named read-outs stand apart in the source and are kept apart here.
# Columns and labels:
# [1] = target: T1, CRBN (Homo sapiens, UniProt Q96SW2); experiment: Competitive displacement assay for cellular CRBN engagement (rescue of dBET6-mediated BRD4BD2-eGFP degradation); format: cell-based; conditions: co-treated with 100 nM dBET6, 5 h
# [2] = target: HCV NS3-eGFP protein fusion (Hepatitis C virus genotype 2a, UniProt Q99IB8); format: cell-based; conditions: for DC50: 4 h treatment
# [3] = system: HCV NS3; format: cell-based, hepatitis C virus; conditions: 1000 nM, 4 h; selectivity
# [4] = system: HCV-JFH1-ad; experiment: microbe, parasite or virus in culture; format: cell-based, hepatitis C virus
# [5] = system: wildtype HCV-Jc1; experiment: microbe, parasite or virus in culture; format: cell-based, hepatitis C virus
# [6] = system: HCV-NS3-V55A; experiment: microbe, parasite or virus in culture; format: cell-based, hepatitis C virus
# [7] = system: HCV-NS3-A156S; experiment: microbe, parasite or virus in culture; format: cell-based, hepatitis C virus
# [8] = Cytotoxicity assay (CellTiter-Glo, 24 h); format: cell-based; conditions: human, CC50 (50% loss of viability)
# [9] = target: T1, CRBN; experiment: Cellular thermal shift assay for CRBN engagement (HEK293T cells); format: cell-based; conditions: 1 h at 37 °C, heated at 61 °C, dose-response
# [10] = target: HCV NS3 (Hepatitis C virus genotype 2a, UniProt Q99IB8); format: cell-based; conditions: percentage of DMSO-treated control, 1000 nM (legend; picture prints 500nM)
# [11] = 1000 nM compound + 5000 nM lenalidomide, 4 h, Fig. 2d
# [12] = 1000 nM compound + DMSO, 4 h, Fig. 2d
# [13] = read-out: NS3-eGFP degradation DC50, average value reported, average of n ≥ 2 independent experiments
# [14] = read-out: NS3-eGFP degradation DC50, single experiments, individual experiments (source data)
# [15] = Hepatitis C virus, Huh7.5, read-out: antiviral IC50 (50% reduction in viral titers), average value reported, Huh7.5, MOI 0.1, treated 24 to 48 h post-infection, average of n ≥ 2 experiments
# [16] = read-out: antiviral IC50 (50% reduction in viral titers), single experiments, Huh7.5, MOI 0.1, treated 24 to 48 h post-infection, individual experiments
# [17] = average value reported, averaged from n = 2
# [18] = single experiments, individual experiments
# [19] = 500 nM compound + 500 nM lenalidomide, 4 h, Supplementary Fig. 4c
# [20] = 500 nM compound + 5000 nM lenalidomide, 4 h, Supplementary Fig. 4c
# [21] = 500 nM compound + DMSO, 4 h, Supplementary Fig. 4c
# [22] = Hepatitis C virus, Huh7.5, read-out: antiviral IC50 (50% reduction in viral titers), single experiments, Huh7.5, MOI 0.1, treated 24 to 48 h post-infection, individual experiments
# [23] = Huh7.5 CRBN-/-, HCV-JFH1-ad MOI 0.1, 24 to 48 h post-infection
# [24] = wildtype Huh7.5, HCV-JFH1-ad MOI 0.1, 24 to 48 h post-infection
SMILES,EC50 [1] [µM],"DC50 [2, 13] [µM]","DC50 [2, 14]","IC50 [4, 15] [µM]","IC50 [4, 16]","CC50 at 24 h [8, 17] [µM]","CC50 at 24 h [8, 18] [µM]","NS3-eGFP/mCherry ratio normalized to DMSO, average [2, 19]","NS3-eGFP/mCherry ratio normalized to DMSO, single experiments [2, 19]","NS3-eGFP/mCherry ratio normalized to DMSO, average [2, 20]","NS3-eGFP/mCherry ratio normalized to DMSO, single experiments [2, 20]","NS3-eGFP/mCherry ratio normalized to DMSO, average [2, 21]","NS3-eGFP/mCherry ratio normalized to DMSO, single experiments [2, 21]","IC50 [4, 22] [µM]","relative NS3 levels (normalized to GAPDH), CRBN-/- cells, average [10, 23] [%]","relative NS3 levels (normalized to GAPDH), wildtype cells, average [10, 24] [%]",other results
CCC[C@H](NC(=O)[C@@H]1[C@H]2CCC[C@H]2CN1C(=O)[C@@H](NC(=O)[C@@H](NC(=O)c1cnc(C(=O)NCCOCCOCCOc2cc3c4c(cccc4c2)C(=O)N(C2CCC(=O)NC2=O)C3=O)cn1)C1CCCCC1)C(C)(C)C)C(=O)C(=O)NC1CC1 (stereo partly shown) [DGY-08-097],0.703,0.05,0.051 µM and 0.049 µM and 0.046 µM and 0.054 µM,0.748,0.706 µM and 0.627 µM and 0.425 µM and 1.23 µM,> 40,> 40,–,–,–,–,–,–,–,–,–,"NS3-eGFP/mCherry ratio normalized to DMSO, average [2, 11]: 0.60; NS3-eGFP/mCherry ratio normalized to DMSO, single experiments [2, 11]: 0.62 and 0.58; NS3-eGFP/mCherry ratio normalized to DMSO, average [2, 12]: 0.24; NS3-eGFP/mCherry ratio normalized to DMSO, single experiments [2, 12]: 0.23 and 0.25; concentrations at which a hook effect was observed in the transient NS3 degradation assay ([2]; 4 h): above 1000 nM; degradation of IMiDs neo-substrates IKZF1 and IKZF3 [3]: no degradation; other proteins significantly affected (of ~8700 quantified) [3]: no other protein of the ~8700 quantified was observed to be significantly affected; IC50 ([5]; Hepatitis C virus, Huh7.5, read-out: antiviral IC50, wildtype virus, average value reported, Huh7.5, MOI 0.1, treated 24 to 48 h post-infection): 0.558 µM; IC50 ([5]; Hepatitis C virus, Huh7.5, read-out: antiviral IC50, wildtype virus, single experiments, Huh7.5, MOI 0.1, treated 24 to 48 h post-infection): 0.63 µM; IC50 ([5]; read-out: antiviral IC50, wildtype virus, single experiments, Huh7.5, MOI 0.1, treated 24 to 48 h post-infection): 0.417 µM and 0.627 µM; IC50 ([6]; Hepatitis C virus, Huh7.5, read-out: antiviral IC50, NS3-V55A virus, average value reported, Huh7.5, MOI 0.1, treated 24 to 48 h post-infection): 0.508 µM; IC50 ([6]; Hepatitis C virus, Huh7.5, read-out: antiviral IC50, NS3-V55A virus, single experiments, Huh7.5, MOI 0.1, treated 24 to 48 h post-infection): 0.403 µM; IC50 ([6]; read-out: antiviral IC50, NS3-V55A virus, single experiments, Huh7.5, MOI 0.1, treated 24 to 48 h post-infection): 0.38 µM and 0.742 µM; IC50 ([7]; Hepatitis C virus, Huh7.5, read-out: antiviral IC50, NS3-A156S virus, average value reported, Huh7.5, MOI 0.1, treated 24 to 48 h post-infection): 1.56 µM; IC50 ([7]; Hepatitis C virus, Huh7.5, read-out: antiviral IC50, NS3-A156S virus, single experiments, Huh7.5, MOI 0.1, treated 24 to 48 h post-infection): 2.02 µM; change in antiviral potency, NS3-A156S vs wildtype ([7]; ratio of IC50 values): 3 fold; IC50 ([7]; read-out: antiviral IC50, NS3-A156S virus, single experiments, Huh7.5, MOI 0.1, treated 24 to 48 h post-infection): 1.11 µM; stabilization of CRBN in cellular thermal shift assay [9]: concentration-dependent stabilization of CRBN"
CCC[C@H](NC(=O)[C@@H]1[C@H]2CCC[C@H]2CN1C(=O)[C@@H](NC(=O)[C@@H](NC(=O)c1cnc(C(=O)NCCOCCOCCNc2cccc3c2C(=O)N(C2CCC(=O)NC2=O)C3=O)cn1)C1CCCCC1)C(C)(C)C)C(=O)C(=O)NC1CC1 (stereo partly shown) [DGY-04-035],0.641,0.489,0.444 µM and 0.438 µM and 0.379 µM and 0.65 µM and 0.532 µM,–,2.65 µM and 3.95 µM,> 40,> 40,0.66,0.67 and 0.64,0.86,0.87 and 0.85,0.54,0.54 and 0.53,2.16,87,48,"relative NS3 levels (normalized to GAPDH), CRBN-/- cells, single experiments [10, 23]: 107% and 74% and 80%; relative NS3 levels (normalized to GAPDH), wildtype cells, single experiments [10, 24]: 54% and 46% and 44%"
CCC[C@H](NC(=O)[C@@H]1[C@H]2CCC[C@H]2CN1C(=O)[C@@H](NC(=O)[C@@H](NC(=O)c1cnc(C(=O)NCCCCCCNc2cccc3c2CN(C2CCC(=O)NC2=O)C3=O)cn1)C1CCCCC1)C(C)(C)C)C(=O)C(=O)NC1CC1 (stereo partly shown) [DGY-03-081],0.576,0.669,0.642 µM and 0.695 µM,3.07,2.84 µM,> 40,> 40,0.71,0.72 and 0.71,0.84,0.85 and 0.83,0.65,0.65 and 0.64,3.3,101,50,–
